# From patent US20230320986A1, “TARGETED ANT[…] SYSTEM FOR CANCER TREATMENT” (priority 2020, published 2023)
# Key:
# M21 cells = assay: Cytotoxicity in cultured cells; type: cell-based, human; settings: 25 µM drug, 30 min treatment
# Description: (§1) For assessment of the UTO cytotoxicity the cytotoxicity of RPAR-UTO-PS, UTO-PS, PS, free UTO, and free DOX in cultured PPC-1 (FIG. 4) and M21 (FIG. 5) cells after 30 min treatment over a range of drug concentrations was tested.
# PPC-1 cells = assay: Cytotoxicity in cultured cells; type: cell-based, human; settings: 30 min treatment
# Description: as §1
# [1] = Cumulative drug release from polymersomes; type: physicochemical; settings: after 48 h, 37° C., PBS
# Description: To further evaluate the UTO and DOX cumulative release behavior from polymersomes, UTO-and DOX-loaded PS were incubated at 37° C. in PBS (0.25 mL) for different time periods (0; 1; 4; 24; and 48 h). The samples were centrifuged using Amicon Ultra centrifugal filters (MWCO 100 kDa) for 20 min at 6,000 g at RT. The fluorescence of the filtrates was measured at 485 nm/535 nm (0.1 s) using a Victor X5 Multilabel Microplate Reader (Perkin Elmer, USA) to quantify the released drug amount.
# [2] = Encapsulation efficiency, comparison PS-UTO vs. PS-DOX (section 4); type: physicochemical; settings: PEG-PCL-PS
# Description: Polymersomes were prepared by dissolving 5 mg of PEG-PCL in 0.3 mL acetone. The acetone was evaporated with nitrogen flow forming a thin polymeric film on the wall of the glass vial. The film was hydrated with 0.5 mL of PBS pH 7.4 previously purged with nitrogen flow, heated for 30 seconds in a 65° C. water bath, and sonicated for 30 seconds. The heating and sonication steps were repeated until the PS were formed and polymer aggregates were not observed in the suspension. The final volume of PS samples was 0.5 mL and the total polymer concentration 10 mg/mL.
# For the PS encapsulation of UTO […] of UTO were dissolved in 100 µL of acetone (0.5 mM concentration) and added to the polymers dissolved in acetone (total amount of polymer - 5 mg, UTO concentration 0.125 mM). The acetone was evaporated to form the polymer/drug film and the PS were formed as described above.
# For DOX encapsulation the polymeric film was hydrated with 2 mM DOX solution in PBS pH 7.4 and the PS were formed as described above. […]
# The UTO and DOX PS-encapsulated amounts were quantified using UV-VIS spectrometry (Thermo Scientific, USA). For UTO quantification, serial dilutions of UTO in MeOH:water 1:1 were prepared and the absorbance at 485 nm was used for calibration. For DOX quantification, serial dilutions of DOX in PBS were prepared and also the absorbance at 485 nm was measured. […]
# [3] = Encapsulation efficiency in polymersomes (section 3.2); type: physicochemical; settings: thin-film hydration, after size exclusion chromatography
# Description: For the encapsulation of the drug inside PS, 50 nmols of drug were dissolved in 100 µL of acetone and added to the polymers dissolved in acetone (total amount of polymer was 5 mg). The acetone was evaporated to form the polymer/drug film and the PS were formed as described above.
# PS were purified by size exclusion chromatography. Agarose beads with a diameter of 45-165 µm ([…] 4B gel) were used as stationary phase. The height of the Sephadex gel in a column was 8 cm (volume 25.13 mL). The PS sample was eluted with PBS pH 7.4.
# The amount of encapsulated drug was quantified using a Nanodrop 2000c UV-VIS spectrophotometer (Thermo Scientific, USA). For drug quantification, serial dilutions of drug in MeOH:water 1:1 were prepared and the absorbance at 490 nm was measured. Using gathered data, the linear trend line was constructed in MS Excel program and the formula was further used to evaluate the concentration of drug inside PS.
# For assessment of the UTO encapsulation efficiency the above depicted anthracycline derivative was encapsulated in a PS using a thin-film hydration method. After encapsulation the sample was purified by size exclusion chromatography to remove non-encapsulated drug. […]
Structure (SMILES),"viability at 25 µM (M21 cells; Homo sapiens, 0.5 h, read-out: cell viability) [%]","viability at 2.5 µM (PPC-1 cells; Homo sapiens, 0.5 h, 2.5 µM drug, read-out: cell viability) [%]","viability at 25 µM (PPC-1 cells; Homo sapiens, 0.5 h, 25 µM drug, read-out: cell viability) [%]",drug released from the PS [1],"encapsulation efficiency, times lower compared to UTO [2]","encapsulation efficiency (EE) ([2]; film hydration, after purification) [%]",encapsulation efficiency (EE) [3] [%],cell viability (M21 cells) [%],cell viability (PPC-1 cells; 2.5 µM drug) [%],cell viability (PPC-1 cells; 25 µM drug) [%]
CC(=O)OCOC(=O)N1CO[C@@H]2[C@H](C)O[C@@H](O[C@H]3C[C@](N)(C(C)O)Cc4c(O)c5c(c(O)c43)C(=O)c3ccccc3C5=O)C[C@@H]21 (some centres unmarked) [UTO],15,68,14,less than 3%,,,,,,
"COc1cccc2c1C(=O)c1c(O)c3c(c(O)c1C2=O)C[C@@](O)(C(=O)CO)C[C@@H]3O[C@H]1C[C@H](N)[C@H](O)[C@H](C)O1 [DOX, doxorubicin]",,,,approximately 10%,approximately 20 times,2.3,1,58,87,56
